Test results: patent US12043632B2, “6-heteroaryloxy benzimidazoles and azabenzimidazoles as JAK2 inhibitors” (Ajax Therapeutics, Inc., priority 2020, dated 2024)

Each molecule was assayed against T1, JAK2 (JH1domain-catalytic, Y1007F,Y1008F) kinase (Homo sapiens, UniProt O60674, Y1007F/Y1008F) (assay: JAK2 JH1 Domain Binding Assay). Settings: qPCR readout.
T1 construct: JAK2 (JH1domain-catalytic, Y1007F,Y1008F) kinase was expressed as N-terminal fusion; made in house; host or cells: transiently transfected HEK293 cells
T1 sequence (O60674 849-1124 Y1007F/Y1008F limits assumed): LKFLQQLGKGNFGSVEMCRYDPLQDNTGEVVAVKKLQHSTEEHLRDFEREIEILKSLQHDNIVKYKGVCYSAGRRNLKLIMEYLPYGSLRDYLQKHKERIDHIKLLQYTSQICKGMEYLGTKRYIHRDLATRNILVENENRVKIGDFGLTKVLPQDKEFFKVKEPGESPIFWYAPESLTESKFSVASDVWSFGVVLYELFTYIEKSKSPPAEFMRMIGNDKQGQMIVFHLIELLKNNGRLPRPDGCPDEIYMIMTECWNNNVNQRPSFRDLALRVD

**Q.** Which Kd does the source give for `COc1c(Oc2cnn3ccccc23)cnc2nc(Nc3cc(C4CC4)cn([C@@H]4CC[C@H]4O)c3=O)n(C)c12` (single isomer, unassigned) [Example I-122-a] here?
**A.** < 10 nM

**Q.** `CNc1cn2ncc(Oc3cnc4nc(Nc5ccc(CN6CCC(F)(F)C6)c(C(F)(F)F)c5)n(C)c4c3Cl)c2cn1` [Example I-326, 7-chloro-N-(4-((3,3-difluoropyrrolidin-1-yl)methyl)-3-(trifluoromethyl)phenyl)-1-methyl-6-((6-(methylamino)pyrazolo[1,5-a]pyrazin-3-yl)oxy)-1H-imidazo[4,5-b]pyridin-2-amine] was tested. Which Kd did it give?
**A.** 50 to 1000 nM

**Q.** How did the Kd turn out when `Cn1c(Nc2cc(C3CC3)cn([C@H]3C[C@H](O)C3)c2=O)nc2ncc(Oc3cnn4cc(F)ccc34)c(Cl)c21` [Example I-152, trans-3-((7-chloro-6-((6-fluoropyrazolo[1,5-a]pyridin-3-yl)oxy)-1-methyl-1H-imidazo[4,5-b]pyridin-2-yl)amino)-5-cyclopropyl-1-(3-hydroxycyclobutyl)pyridin-2(1H)-one] was run?
**A.** < 10 nM

**Q.** Which Kd does the source give for `Cn1c(Nc2cc(C3CC3)cn(CCO)c2=O)nc2ncc(Oc3cnn4ccncc34)c(Cl)c21` [Example I-65, 3-((7-chloro-1-methyl-6-(pyrazolo[1,5-a]pyrazin-3-yloxy)-1H-imidazo[4,5-b]pyridin-2-yl)amino)-5-cyclopropyl-1-(2-hydroxyethyl)pyridin-2(1H)-one] here?
**A.** < 10 nM

**Q.** Which Kd does the source give for `COc1c(Oc2cnn3ccncc23)cnc2nc(Nc3cc(C4CC4)cn([C@H]4C[C@H](C#N)C4)c3=O)n(C)c12` [Example I-96, trans-3-(5-cyclopropyl-3-((7-methoxy-1-methyl-6-(pyrazolo[1,5-a]pyrazin-3-yloxy)-1H-imidazo[4,5-b]pyridin-2-yl)amino)-2-oxopyridin-1(2H)-yl)cyclobutane-1-carbonitrile] here?
**A.** 10 to 50 nM

**Q.** `Cn1c(Nc2ccc(CN3CCN(CC(F)F)CC3)c(C(F)(F)F)c2)nc2ncc(Oc3cnn4ccncc34)c(Cl)c21` [Example I-208, 7-chloro-N-(4-((4-(2,2-difluoroethyl)piperazin-1-yl)methyl)-3-(trifluoromethyl)phenyl)-1-methyl-6-(pyrazolo[1,5-a]pyrazin-3-yloxy)-1H-imidazo[4,5-b]pyridin-2-amine] was tested. Which Kd did it give?
**A.** 50 to 1000 nM

**Q.** For `Cn1c(Nc2cc(C(F)(F)F)cn([C@H]3CC[C@H]3O)c2=O)nc2ncc(Oc3cnn4ccncc34)c(Cl)c21` (single isomer, unassigned) [Example I-119-b], which Kd is on record?
**A.** < 10 nM

**Q.** With `Cn1c(Nc2cc(C(F)(F)F)n(C3CC4(CCOCC4)C3)n2)nc2ncc(Oc3cnc4[nH]ccc4c3)c(C#N)c21` [Example I-401, 6-((1H-pyrrolo[2,3-b]pyridin-5-yl)oxy)-2-((1-(7-oxaspiro[3.5]nonan-2-yl)-5-(trifluoromethyl)-1H-pyrazol-3-yl)amino)-1-methyl-1H-imidazo[4,5-b]pyridine-7-carbonitrile] as the molecule, how does the Kd read?
**A.** 10 to 50 nM

**Q.** How did the Kd turn out when `Cn1c(Nc2cc(C(C)(C)C)n(C3COCC3O)n2)nc2ncc(Oc3cnn4ccncc34)c(Cl)c21` (single isomer, unassigned) [Example I-48] was run?
**A.** < 10 nM

**Q.** Which Kd does the source give for `COc1c[nH]c2ncc(Oc3cnc4nc(Nc5cc(C(F)(F)F)cn(C)c5=O)n(C)c4c3C#N)cc12` [Example I-349, 6-((3-methoxy-1H-pyrrolo[2,3-b]pyridin-5-yl)oxy)-1-methyl-2-((1-methyl-2-oxo-5-(trifluoromethyl)-1,2-dihydropyridin-3-yl)amino)-1H-imidazo[4,5-b]pyridine-7-carbonitrile] here?
**A.** < 10 nM

**Q.** For `Cn1c(Nc2cc(C3CC3)cn(CCCN3CCOCC3)c2=O)nc2ncc(Oc3cnn4ccncc34)c(Cl)c21` [Example I-97, 3-((7-chloro-1-methyl-6-(pyrazolo[1,5-a]pyrazin-3-yloxy)-1H-imidazo[4,5-b]pyridin-2-yl)amino)-5-cyclopropyl-1-(3-morpholinopropyl)pyridin-2(1H)-one], which Kd is on record?
**A.** < 10 nM

**Q.** For `COc1c(Oc2cnn3ccccc23)cnc2nc(Nc3cc(C4CC4)cn([C@@H]4CCCOC4)c3=O)n(C)c12` (single isomer, unassigned) [Example I-101-b], which Kd is on record?
**A.** < 10 nM

**Q.** With `Cn1c(Nc2cc(C3CC3)cn([C@@H]3CC[C@H]3O)c2=O)nc2ncc(Oc3cnn4ccccc34)c(Cl)c21` (single isomer, unassigned) [Example I-99-b] as the molecule, how does the Kd read?
**A.** < 10 nM

**Q.** Which Kd does the source give for `Cn1c(Nc2cc(C(C)(C)C)n(C3COC3)n2)nc2ncc(Oc3cnn4ccncc34)c(Cl)c21` [Example I-86, N-(5-(tert-butyl)-1-(oxetan-3-yl)-1H-pyrazol-3-yl)-7-chloro-1-methyl-6-(pyrazolo[1,5-a]pyrazin-3-yloxy)-1H-imidazo[4,5-b]pyridin-2-amine] here?
**A.** < 10 nM

**Q.** How did the Kd turn out when `COc1c(Oc2cnn3ccncc23)cnc2nc(Nc3cc(C4CC4)cn([C@H]4C[C@H](O)C4)c3=O)n(C)c12` [Example I-75, trans-5-cyclopropyl-1-(3-hydroxycyclobutyl)-3-((7-methoxy-1-methyl-6-(pyrazolo[1,5-a]pyrazin-3-yloxy)-1H-imidazo[4,5-b]pyridin-2-yl)amino)pyridin-2(1H)-one] was run?
**A.** < 10 nM

**Q.** Which Kd does the source give for `Cn1c(Nc2cc(C(F)(F)F)cn([C@H]3CC[C@@H]3O)c2=O)nc2ncc(Oc3cnn4ccncc34)c(Cl)c21` (single isomer, unassigned) [Example I-105-a] here?
**A.** < 10 nM

**Q.** Which Kd does the source give for `COCCOc1cn2ncc(Oc3cnc4nc(Nc5cc(C(F)(F)F)cn(C)c5=O)n(C)c4c3Cl)c2cn1` [Example I-365, 3-((7-chloro-6-((6-(2-methoxyethoxy)pyrazolo[1,5-a]pyrazin-3-yl)oxy)-1-methyl-1H-imidazo[4,5-b]pyridin-2-yl)amino)-1-methyl-5-(trifluoromethyl)pyridin-2(1H)-one] here?
**A.** < 10 nM

**Q.** With `Cn1c(Nc2cc(C(F)(F)F)cn([C@@H]3CC[C@H]3O)c2=O)nc2ncc(Oc3cnn4ccncc34)c(Cl)c21` (single isomer, unassigned) [Example I-105-b] as the molecule, how does the Kd read?
**A.** < 10 nM

**Q.** Which Kd does the source give for `Cn1c(Nc2cc(C3CC3)cn(CCO)c2=O)nc2ncc(Oc3cnn4ccccc34)c(Cl)c21` [Example I-78, 3-((7-chloro-1-methyl-6-(pyrazolo[1,5-a]pyridin-3-yloxy)-1H-imidazo[4,5-b]pyridin-2-yl)amino)-5-cyclopropyl-1-(2-hydroxyethyl)pyridin-2(1H)-one] here?
**A.** < 10 nM

**Q.** Which Kd does the source give for `CN1C[C@H](F)[C@@H](n2nc(Nc3nc4ncc(Oc5cnn6ccncc56)c(Cl)c4n3C)cc2C(C)(C)C)C1` (single isomer, unassigned) [Example I-267-b] here?
**A.** 50 to 1000 nM

**Q.** Which Kd does the source give for `Cn1cc(C2CC2)cc(Nc2nc3ncc(Oc4cnc5cnc(C6CC6)n5c4)c(Cl)c3n2C)c1=O` [Example I-84, 3-((7-chloro-6-((6-cyclopropylimidazo[1,5-a]pyrimidin-3-yl)oxy)-1-methyl-1H-imidazo[4,5-b]pyridin-2-yl)amino)-5-cyclopropyl-1-methylpyridin-2(1H)-one] here?
**A.** < 10 nM

**Q.** Which Kd does the source give for `Cn1c(Nc2cc(C(C)(C)C)n([C@@H]3COC[C@H]3O)n2)nc2ncc(Oc3cnc4cnc(C5CC5)n4c3)c(Cl)c21` (single isomer, unassigned) [Example I-76-b] here?
**A.** 10 to 50 nM

**Q.** Which Kd does the source give for `CC(O)Cn1nc(Nc2nc3ncc(Oc4cnn5ccncc45)c(Cl)c3n2C)cc1C(C)(C)C` (single isomer, unassigned) [Example I-37] here?
**A.** < 10 nM

**Q.** For `Cn1c(Nc2cc(C(C)(C)C)n([C@H]3C[C@H](O)C3)n2)nc2ncc(Oc3cnc4cnc(C5CC5)n4c3)c(Cl)c21` [Example I-88, trans-3-(5-(tert-butyl)-3-((7-chloro-6-((6-cyclopropylimidazo[1,5-a]pyrimidin-3-yl)oxy)-1-methyl-1H-imidazo[4,5-b]pyridin-2-yl)amino)-1H-pyrazol-1-yl)cyclobutan-1-ol], which Kd is on record?
**A.** 10 to 50 nM

**Q.** Which Kd does the source give for `COc1c(Oc2cnn3ccncc23)cnc2nc(Nc3cc(C(C)(C)C)n([C@H]4CCN(CCF)C4)n3)n(C)c12` [Example I-50, (S)—N-(5-(tert-butyl)-1-(1-(2-fluoroethyl)pyrrolidin-3-yl)-1H-pyrazol-3-yl)-7-methoxy-1-methyl-6-(pyrazolo[1,5-a]pyrazin-3-yloxy)-1H-imidazo[4,5-b]pyridin-2-amine] here?
**A.** 10 to 50 nM

**Q.** `CNc1cn2ncc(Oc3cnc4nc(Nc5cc(C(F)(F)F)cn(-c6cnn(C)c6)c5=O)n(C)c4c3Cl)c2cn1` [Example I-328, 3-((7-chloro-1-methyl-6-((6-(methylamino)pyrazolo[1,5-a]pyrazin-3-yl)oxy)-1H-imidazo[4,5-b]pyridin-2-yl)amino)-1-(1-methyl-1H-pyrazol-4-yl)-5-(trifluoromethyl)pyridin-2(1H)-one] was tested. Which Kd did it give?
**A.** 10 to 50 nM

**Q.** `C[C@@H](CO)Cn1cc(C2CC2)cc(Nc2nc3ncc(Oc4cnn5ccncc45)c(Cl)c3n2C)c1=O` (single isomer, unassigned) [Example I-81-b] was tested. Which Kd did it give?
**A.** < 10 nM

**Q.** For `CN1CC[C@@H](n2nc(Nc3nc4ncc(Oc5cnc6sccc6c5)c(Cl)c4n3C)cc2C(C)(C)C)C1` [Example I-20, (R)—N-(5-(tert-butyl)-1-(1-methylpyrrolidin-3-yl)-1H-pyrazol-3-yl)-7-chloro-1-methyl-6-(thieno[2,3-b]pyridin-5-yloxy)-1H-imidazo[4,5-b]pyridin-2-amine], which Kd is on record?
**A.** 50 to 1000 nM

**Q.** How did the Kd turn out when `CNc1nccn2ncc(Oc3cnc4nc(Oc5cc(C6CC6)cn(C(C)C)c5=O)n(C)c4c3Cl)c12` [Example I-222] was run?
**A.** 10 to 50 nM

**Q.** `Cn1cc(C(F)(F)F)cc(Nc2nc3ncc(Oc4cnc5[nH]nc(C6CC6)c5c4)c(C#N)c3n2C)c1=O` [Example I-337, 6-((3-cyclopropyl-1H-pyrazolo[3,4-b]pyridin-5-yl)oxy)-1-methyl-2-((1-methyl-2-oxo-5-(trifluoromethyl)-1,2-dihydropyridin-3-yl)amino)-1H-imidazo[4,5-b]pyridine-7-carbonitrile] was tested. Which Kd did it give?
**A.** < 10 nM

**Q.** Which Kd does the source give for `Cn1c(Nc2cc3n(n2)CCCC3(F)F)nc2ncc(Oc3cnn4ccccc34)c(C#N)c21` [Example I-366, 2-((4,4-difluoro-4,5,6,7-tetrahydropyrazolo[1,5-a]pyridin-2-yl)amino)-1-methyl-6-(pyrazolo[1,5-a]pyridin-3-yloxy)-1H-imidazo[4,5-b]pyridine-7-carbonitrile] here?
**A.** < 10 nM
